The record followed here is patent EP3632468B1, “5-IODO-4-THIO-2'-DEOXYURIDINE FOR USE AS A RADIOSENSITIZER IN RADIOTHERAPY” (Uniwersytet Gdanski, priority 2018, dated 2020).

Common to all, as to format: cell-based
The subject of series [1] is human dermal fibroblasts - HDFa line. Put plainly: MTT cytotoxicity assay, HDFa. The following applies: ISdU 10^-8 to 10^-4 M, 24 h and 48 h incubation, no irradiation. The procedure: (§1) Cytotoxic activity was determined using the MTT assay after incubation of MCF-7 (CLS, Eppelheim) or HDFa (Gibco Invitrogen) cells with ISdU. The MCF-7 cells were grown in RPMI supplemented with 10% FBS and antibiotics (streptomycin and penicillin) at a concentration of 100 U·mL^-1. The HDFa cells were grown in DMEM supplemented with 10% FBS and antibiotics (streptomycin and penicillin) at the same concentration. Cells at a density of 4·10^3 per well were seeded into a 96-well plate and incubated (37°C, 5% CO2) for 24 h. Then, the medium was freshly changed, and the cells were treated with ISdU at concentrations of 0 (control), 10^-4, 5·10^-5, 10^-5, 10^-6, 10^-7 and 10^-8 M. Cells were incubated with ISdU for 24 h and 48 h. After this time, the aqueous MTT salt solution at a concentration of 4 mg·mL^-1 was added to each well. After 4 h of incubation, the medium was removed and 200 µL of dimethylsulfoxide (DMSO) was added to dissolve the formazan crystals. The absorbance was measured at 570 nm (with 660 nm taken as the reference) on an EnSpire microplate reader (PerkinElmer). […] The results were analyzed with the use of GraphPad Prism software. The statistical evaluation of treated samples and untreated controls was calculated using one-way analysis of variance (ANOVA) followed by […] multiple comparison test. […]

The subject of series [2] is MCF-7 cells (human breast cancer cells). Kind of series: Cytometric analysis of phosphorylation of histone H2A.X (double strand break marker). Particulars: 10^-4 M ISdU 48 h. As to the method: One of the damages caused by ISdU are double strand break of DNA, whose molecular marker is phosphorylation of histone H2A.X. To confirm the application of the compound in radiotherapy, the cytometric analysis of phosphorylation of histone H2A.X, molecular marker of double strand break of DNA was carried out.
The MCF-7 cells (human breast cancer cells) were grown up in RPMI medium supplemented with 10 % FBS (fetal bovine serum) and antibiotics (penicillin and streptomycin) at a concertation of 100 U · ml^-1. The cells were treated with ISdU at the concentration of 10^-4 M and incubated (37°C, 5% CO2) for 48 h. Upon this time, plate cultures were X-ray irradiated with doses of 1 Gy and 2 Gy, using of e.g. Cellrad X-ray cabinet, Faxitron X-ray Corporation, and incubated for 1 h in the same condition. Next, the cells were detached with solution of Accutase (Life Technologies, UK), fixed and permeabilized (fixation and permeabilization was performed by the manufacturer's protocol FlowCellect™ Histone H2A.X Phosphorylation Assay Kit, Merck). Prepared cells were analyzed by cytometric using of e.g. Guava easyCyte™, Merck. The experiment was performed in triplicated. The non-treated cells were a control.

Series [3] concerns human breast cancer cells - MCF-7 line. Kind of series: MTT cytotoxicity assay, MCF-7. The following applies: MCF7, light or radiation study, 100 µM ISdU, 48 h incubation, no irradiation, read-out: MCF-7 cells viability compared to the control. As to the method: as §1

For the compound `O=c1[nH]c(=S)c(I)cn1[C@H]1C[C@H](O)[C@@H](CO)O1` [ISdU, 5-iodo-4-thio-2'-deoxyuridine], the HDFa cell viability entry in series [1] is reported as “a statistically significant decrease in cell viability was not observed”. The γH2A.X positive cells in series [2] (1 Gy X-ray, measured 1 h after irradiation (control 26.56 ± 1.14%)) is recorded as 35.15 ± 1.48%; in series [2] (2 Gy X-ray, measured 1 h after irradiation (control 49.38 ± 3.8%)), 60.25 ± 2.98%. Further, the viability at 100 µM in series [3] was 91 ± 3%.
